Measurements: ChEMBL document CHEMBL4706518, “Discovery of MGS0274, an ester prodrug of a metabotropic glutamate receptor 2/3 agonist with improved oral bioavailability” (Eur J Med Chem, 2020)

Legend:
[1] = Lipophilicity, logD of compound in n-octanol and phosphate buffered saline at 2 mg after 1.5 hrs by HPLC based shake flask method; format: physicochemical; conditions: for logD at 1.5 h: n-octanol/phosphate buffered saline
[2] = Stability of compound in PBS at pH 6.5 assessed as remaining parent compound at 50 ug/ml after 1 hr by HPLC analysis; format: physicochemical; conditions: PBS at pH 6.5, pH 6.5, at 50 µg/mL, read-out: Stabilty
[3] = Stability of compound in HCL at pH 1.2 assessed as remaining parent compound at 50 ug/ml after 1 hr by HPLC analysis; format: physicochemical; conditions: HCl at pH 1.2, pH 1.2, at 50 µg/mL, read-out: Stabilty
[4] = Oral bioavailability in monkey at 4.92 umol/kg measured up to 24 hrs by LC-MS/MS analysis; format: ADME, organism-based, Macaca mulatta; conditions: rhesus monkey, in vivo, at 4.92 µmol/kg

Row | SMILES | logD at 1.5 h [1] | remaining at 1 h, 50 ug/ml [2] [%] | remaining at 1 h, 50 ug/ml [3] [%] | bioavailability [4] [%] | logD ([1]; 1.5 h)
1 | Cc1oc(=O)oc1COC(=O)[C@@]1(N)[C@H]2[C@@H](C[C@@H]1F)[C@@H]2C(=O)O | -0.95 | 54 | 95 |  | 
2 | CC(C)(C)C(=O)OCOC(=O)[C@H]1[C@@H]2C[C@H](F)[C@@](N)(C(=O)O)[C@@H]21 | -0.54 | 99 | 100 |  | 
3 | CC(OC(=O)OC1CCCCC1)OC(=O)[C@H]1[C@@H]2C[C@H](F)[C@@](N)(C(=O)O)[C@@H]21 (stereo partly drawn) | 0.58 | 97 | 100 | 18 | 
4 | CC(C)[C@@H]1CC[C@@H](C)C[C@H]1OC(=O)O[C@H](C)OC(=O)[C@H]1[C@@H]2C[C@H](F)[C@@](N)(C(=O)O)[C@@H]21 | > 1.78 |  |  |  | 
5 | CC(OC(=O)C(C)C)OC(=O)[C@H]1[C@@H]2C[C@H](F)[C@@](N)(C(=O)O)[C@@H]21 (stereo partly drawn) | < -0.65 | 101 | 100 |  | 
6 | CC(C)OC(=O)OC(C)OC(=O)[C@H]1[C@@H]2C[C@H](F)[C@@](N)(C(=O)O)[C@@H]21 (stereo partly drawn) | 0.06 | 101 | 102 |  | 
7 | CC(OC(=O)OC1CCCCC1)OC(=O)[C@@]1(N)[C@H]2[C@@H](C[C@@H]1F)[C@@H]2C(=O)O (stereo partly drawn) |  | 25 | 75 |  | Nd(Unstable)

Next, values leading:

Row | logD at 1.5 h [1] | remaining at 1 h, 50 ug/ml [2] [%] | remaining at 1 h, 50 ug/ml [3] [%] | bioavailability [4] [%] | logD ([1]; 1.5 h) | SMILES
8 | -0.71 | 97 | 99 |  |  | N[C@]1(C(=O)O)[C@H]2[C@@H](C[C@@H]1F)[C@@H]2C(=O)OC1OC(=O)c2ccccc21 (stereo partly drawn)
9 | -1.69 | 98 | 99 |  |  | Cc1oc(=O)oc1COC(=O)[C@H]1[C@@H]2C[C@H](F)[C@@](N)(C(=O)O)[C@@H]21
10 | 2.77 | 100 | 100 | 58 |  | CC(OC(=O)O[C@@H]1C[C@H](C)CC[C@H]1C(C)C)OC(=O)[C@H]1[C@@H]2C[C@H](F)[C@@](N)(C(=O)O)[C@@H]21 (stereo partly drawn)
11 | 1.67 | 97 | 95 |  |  | CC(OC(=O)OC12CC3CC(CC(C3)C1)C2)OC(=O)[C@H]1[C@@H]2C[C@H](F)[C@@](N)(C(=O)O)[C@@H]21 (stereo partly drawn)
